Series [1] can be described thus: Absorption in a Caco-2 cells model. Type of series: in vitro ADME. The note with it: human. As for the experimental part: Absorption of the compounds of formula (I) was tested in a Caco-2 cells model (Gastroenterology 1989, 96, 736): […]
Series [2] has as its system 14C-cholesterol absorption. Description: In vivo testing of cholesterol absorption inhibitors (A). The note with it: Mus musculus, po; 0.2 μmol/kg by gavage, procedure A, C57BL/6 female mice. As to the method:
In Vivo Testing of Cholesterol Absorption Inhibitors (A)
C57BL/6 female mice were maintained on regular chow diet and housed in individual cages to collect faeces. Mice were fasted for 3 hours and then gavaged with vehicle or compound. Half an hour later the mice were gavaged with radiolabelled cholesterol. Six hours after the ^14C-cholesterol gavage blood samples were taken via the tail and plasma prepared to determine how much cholesterol were absorbed. 24 hours after the gavage of ^14C-cholesterol the mice were bled and plasma were prepared for analysis. Faeces were collected for 24 hours to assess absorption efficiency.

Usually Papp stands for the rate of passage across a membrane or cell layer, normalised by area and donor concentration. A higher Papp goes with fast passage. In the case of `O=C(COc1ccc([C@@H]2[C@@H](SCC(O)c3ccc4c(c3)CCO4)C(=O)N2c2ccc(F)cc2)cc1)NCC(=O)N[C@H](CC1CCCCC1)C(=O)O` (stereo partly drawn) [Example 1, N-({4-[(2R,3R)-3-{[2-(2,3-dihydro-1-benzofuran-5-yl)-2-hydroxyethyl]thio}-1-(4-fluorophenyl)-4-oxoazetidin-2-yl]phenoxy}acetyl)glycyl-3-cyclohexyl-D-alanine], the apparent permeability (Papp) in series [1] was found to be 0.05 ×10⁻⁶ cm/s.
By inhibition is commonly meant the share of the control response that was lost under treatment. Read a high inhibition as a strong effect. Compound `NCCCC[C@@H](NC(=O)CNC(=O)COc1ccc([C@@H]2[C@@H](SCC(O)c3ccc4c(c3)CCO4)C(=O)N2c2ccc(F)cc2)cc1)C(=O)O` (stereo partly drawn) [Example 3, N-({4-[(2R,3R)-3-{[2-(2,3-dihydro-1-benzofuran-5-yl)-2-hydroxyethyl]thio}-1-(4-fluorophenyl)-4-oxoazetidin-2-yl]phenoxy}acetyl)glycyl-D-lysine] came in with an inhibition at 0.2 µmol/kg in series [2] of 59%.
Compound `CC(C)(C)[C@@H](NC(=O)CNC(=O)COc1ccc([C@@H]2[C@@H](SCC(O)c3ccc4c(c3)CCO4)C(=O)N2c2ccc(F)cc2)cc1)C(=O)O` (stereo partly drawn) [Example 4, N-({4-[(2R,3R)-3-{[2-(2,3-dihydro-1-benzofuran-5-yl)-2-hydroxyethyl]thio}-1-(4-fluorophenyl)-4-oxoazetidin-2-yl]phenoxy}acetyl)glycyl-3-methyl-D-valine] had an inhibition at 0.2 µmol/kg in series [2] of 53%.

For the origin of these results see patent US7893048B2, “2-azetidinone derivatives as cholesterol absorption inhibitors for the treatment of hyperlipidaemic conditions” (AstraZeneca AB, priority 2005, dated 2011).
